Patent publication US10898567B2, “Synthetic long peptides (SLP) for therapeutic vaccination against Hepatitis B virus infection” (priority 2014, dated 2021)

Tested on: PBMC derived from HBV-immune donors
Type: cell-based, human
Conditions: six HBV-immune donors; for positive IFNγ response (SI>3) in HBV-immune donors / IFNγ response in multiple HBV-immune donors: IFNγ-ELISpot; for average SI of the IFNγ-responses: PBMC pre-stimulated with 3 nmol/ml peptide for 72 hours; for IFNγ response in multiple HBV-immune donors: SI>3
Procedure: To detect antigen-specific IFNγ-producing human T cells, the PBMC were first pre-stimulated with 3 nmol/ml of the indicated peptide for 72 hours at 37° C. […] After stimulation of the PBMC, the coating antibody was aspirated from the plate, and washed 4 times with PBS. To block aspecific binding, 100 μl of IMDM containing 8% FCS was added to all wells and incubated at 37° C. for 1 hour. In the meantime, stimulated PBMC were harvested, centrifuged, resuspended in X-vivo 15 medium (Lonza) and counted. […] The medium in the wells of the PVDF plate was aspirated and 100 μl of each PBMC sample was added to the plate in quadruplicates. The plates were incubated at 37° C. overnight. The next day, the supernatant was discarded and plates are washed 6 times with PBS/Tween20 0.05%. […] Next, plates were washed 6 times using PBS/Tween20 0.05% and 1 μg/ml Extravidin-Alkaline phosphatase (ALP) (Sigma-Aldrich) was added to all wells (100 μl/well) in PBS with 1% FBS. The plates were incubated for 1 hour at RT. ALP substrate solution BCIP/NBT-plus (Mabtech) was prepared and 100 μl/well was added to all wells after the plates were washed 4 times with PBS/Tween20 0.05%. To terminate the colorimetric reaction (after 1-20 minutes), tap water was used to wash the plates extensively. After drying, the formed spots were measured on a Biosys Bioreader 5000.
To assess the relevance of the selected vaccine peptides for the clearance of a naturally occurring HBV infection, we tested the presence of T cell responses against the 13 selected HBV peptides in PBMC derived from six HBV-immune donors. After isolation of the PBMC, cells were stimulated with each of the 13 peptides and an IFNγ-ELISpot was performed to detect T cell responses.

Row | Sequence | positive IFNγ response (SI>3) in HBV-immune donors | average SI of the IFNγ-responses | IFNγ response in multiple HBV-immune donors
1 | ALPSPSPSAVPADHGAHLSLRGLPVCAFSSAGP [SLP26] | Responses were observed | 1.56 | –
2 | CAFSSAGPCALRFTSARRMETTVNAHQILPKVLHK [SLP27] | Responses were observed | – | –
3 | DPASRDLVVNYVNTNVGLKIRQLLWFHISCLTFGR (HBV Core aa 107 - 141 (SLP No. 24)) [SLP24] | Responses were observed | 2.54 | induced responses in multiple donors
4 | HDSCSRQLYVSLMLLYKTYGWKLHLYSHPIVLGF (HBV Polymerase aa 481 - 514 (SLP No. 13)) [SLP13] | Responses were observed | 2.44 | induced responses in multiple donors
5 | MPLSYQHFRKLLLLDDGTEAGPLEEELPRL (HBV Polymerase aa 1 - 30 (SLP No. 1)) [SLP1] | – | 1.21 | –
6 | NLLSSNLSWLSLDVSAAFYHIPLHPAAMPHLLIGSSGL (HBV Polymerase aa 419 - 456 (SLP No. 10)) [SLP10] | Responses were observed | 2.40 | induced responses in multiple donors
7 | SPFLLAQFTSAICSVVRRAFPHCLAFSYMDDVVLGA (HBV Polymerase aa 524 - 559 (SLP No. 14)) [SLP14] | Responses were observed | 1.97 | –
8 | SSWAFAKYLWEWASVRFSWLSLLVPFVQWFV (HBV large surface protein aa 328-358) [SLP34] | Responses were observed | 3.02 | induced responses in multiple donors
9 | VVNHYFQTRHYLHTLWKAGILYKRETTRSASFCGSPYSW (HBV Polymerase aa 139 - 177 (SLP No. 5)) [SLP5] | Responses were observed | 2.11 | –
10 | YPALMPLYACIQAKQAFTFSPTYKAFLSKQYMNLYPVAR (HBV Polymerase aa 653 - 691 (SLP No. 18)) [SLP18] | Responses were observed | 1.86 | –
